# Data as given in PubChem BioAssay (NCI).
#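 Method: 48-hour compound exposure of cells in 96-well plates, five concentrations, linear interpolation of endpoints. GI50 is the concentration that inhibits growth by half. At the TGI there is no net growth.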
# Tests used:
# Assay in all cases: DTP human tumour cell line panel, 48 h
# SR leukemia = tested on: SR leukemia
# UACC-62 melanoma = tested on: UACC-62 melanoma
# NCI/ADR-RES ovarian = tested on: NCI/ADR-RES ovarian
# MDA-MB-435 = tested on: MDA-MB-435
# LOX IMVI melanoma = tested on: LOX IMVI melanoma
# NCI-H460 lung = tested on: NCI-H460 lung
# HS 578T breast = tested on: HS 578T breast
# UO-31 renal = tested on: UO-31 renal
# HCT-116 colon = tested on: HCT-116 colon
# MCF7 breast = tested on: MCF7 breast
# SK-MEL-2 melanoma = tested on: SK-MEL-2 melanoma
# ACHN renal = tested on: ACHN renal
# HCT-15 colon = tested on: HCT-15 colon
# U251 CNS = tested on: U251 CNS
# SK-MEL-28 melanoma = tested on: SK-MEL-28 melanoma
# MALME-3M melanoma = tested on: MALME-3M melanoma
# HT29 colon = tested on: HT29 colon
# NCI-H23 lung = tested on: NCI-H23 lung
# UACC-257 melanoma = tested on: UACC-257 melanoma
# BT-549 breast = tested on: BT-549 breast
# SK-MEL-5 melanoma = tested on: SK-MEL-5 melanoma
# M14 melanoma = tested on: M14 melanoma
# DU-145 prostate = tested on: DU-145 prostate
# A498 renal = tested on: A498 renal
# HCC-2998 colon = tested on: HCC-2998 colon
# SNB-75 CNS = tested on: SNB-75 CNS
# 786-0 renal = tested on: 786-0 renal
# NCI-H226 lung = tested on: NCI-H226 lung
# MDA-MB-231 breast = tested on: MDA-MB-231 breast
# OVCAR-5 ovarian = tested on: OVCAR-5 ovarian
# HL-60(TB) leukemia = tested on: HL-60(TB) leukemia
# SF-268 CNS = tested on: SF-268 CNS
# RXF 393 renal = tested on: RXF 393 renal
# EKVX NSCLC = tested on: EKVX NSCLC
# SK-OV-3 ovarian = tested on: SK-OV-3 ovarian
# SF-295 CNS = tested on: SF-295 CNS
# PC-3 prostate = tested on: PC-3 prostate
# RPMI-8226 leukemia = tested on: RPMI-8226 leukemia
# MOLT-4 leukemia = tested on: MOLT-4 leukemia
# OVCAR-4 ovarian = tested on: OVCAR-4 ovarian
# SW-620 colon = tested on: SW-620 colon
# KM12 colon = tested on: KM12 colon
# CCRF-CEM leukemia = tested on: CCRF-CEM leukemia
# TK-10 renal = tested on: TK-10 renal
# K-562 leukemia = tested on: K-562 leukemia
# A549 NSCLC = tested on: A549 NSCLC
# SF-539 CNS = tested on: SF-539 CNS
# SNB-19 CNS = tested on: SNB-19 CNS
# CAKI-1 renal = tested on: CAKI-1 renal
# IGROV1 ovarian = tested on: IGROV1 ovarian
# T-47D breast = tested on: T-47D breast
# OVCAR-8 ovarian = tested on: OVCAR-8 ovarian
# NCI-H522 lung = tested on: NCI-H522 lung
# HOP-62 NSCLC = tested on: HOP-62 NSCLC
# COLO 205 colon = tested on: COLO 205 colon
# SN12C renal = tested on: SN12C renal
structure (smiles),measurement,setting,value
O=[N+]([O-])c1ccc(-c2nnc(SCc3ccc(O)c4ncccc34)o2)cc1,GI50,SR leukemia,424 nM
same,TGI,SR leukemia,> 100000 nM
same,GI50,UACC-62 melanoma,810 nM
same,TGI,UACC-62 melanoma,12600 nM
same,GI50,NCI/ADR-RES ovarian,551 nM
same,TGI,NCI/ADR-RES ovarian,> 100000 nM
same,GI50,MDA-MB-435,331 nM
same,TGI,MDA-MB-435,> 100000 nM
same,GI50,LOX IMVI melanoma,334 nM
same,TGI,LOX IMVI melanoma,> 39000 nM
same,GI50,NCI-H460 lung,260 nM
same,TGI,NCI-H460 lung,> 62700 nM
same,GI50,HS 578T breast,417 nM
same,TGI,HS 578T breast,> 100000 nM
same,GI50,UO-31 renal,347 nM
same,TGI,UO-31 renal,> 53000 nM
same,GI50,HCT-116 colon,189 nM
same,TGI,HCT-116 colon,> 100000 nM
same,GI50,MCF7 breast,224 nM
same,TGI,MCF7 breast,> 100000 nM
same,GI50,SK-MEL-2 melanoma,390 nM
same,GI50,ACHN renal,360 nM
same,TGI,ACHN renal,> 100000 nM
same,GI50,HCT-15 colon,333 nM
same,TGI,HCT-15 colon,> 100000 nM
same,GI50,U251 CNS,181 nM
same,TGI,U251 CNS,> 100000 nM
same,GI50,SK-MEL-28 melanoma,1120 nM
same,TGI,SK-MEL-28 melanoma,> 100000 nM
same,GI50,MALME-3M melanoma,569 nM
same,TGI,MALME-3M melanoma,> 100000 nM
same,GI50,HT29 colon,4840 nM
same,TGI,HT29 colon,> 100000 nM
same,GI50,NCI-H23 lung,407 nM
same,TGI,NCI-H23 lung,> 100000 nM
same,GI50,UACC-257 melanoma,511 nM
same,TGI,UACC-257 melanoma,27500 nM
same,GI50,BT-549 breast,237 nM
same,TGI,BT-549 breast,> 100000 nM
same,GI50,SK-MEL-5 melanoma,357 nM
same,TGI,SK-MEL-5 melanoma,> 30600 nM
same,GI50,M14 melanoma,455 nM
same,TGI,M14 melanoma,7560 nM
same,GI50,DU-145 prostate,467 nM
same,TGI,DU-145 prostate,> 100000 nM
same,GI50,A498 renal,2520 nM
same,TGI,A498 renal,> 30400 nM
same,GI50,HCC-2998 colon,749 nM
same,TGI,HCC-2998 colon,> 100000 nM
same,GI50,SNB-75 CNS,386 nM
same,TGI,SNB-75 CNS,> 100000 nM
same,GI50,786-0 renal,674 nM
same,TGI,786-0 renal,> 100000 nM
same,GI50,NCI-H226 lung,3520 nM
same,TGI,NCI-H226 lung,> 100000 nM
same,GI50,MDA-MB-231 breast,625 nM
same,TGI,MDA-MB-231 breast,> 100000 nM
same,GI50,OVCAR-5 ovarian,3710 nM
same,TGI,OVCAR-5 ovarian,> 100000 nM
same,GI50,HL-60(TB) leukemia,425 nM
same,GI50,SF-268 CNS,608 nM
same,TGI,SF-268 CNS,> 100000 nM
same,GI50,RXF 393 renal,732 nM
same,TGI,RXF 393 renal,> 100000 nM
same,GI50,EKVX NSCLC,746 nM
same,TGI,EKVX NSCLC,> 100000 nM
same,GI50,SK-OV-3 ovarian,379 nM
same,TGI,SK-OV-3 ovarian,3920 nM
same,GI50,SF-295 CNS,315 nM
same,TGI,SF-295 CNS,> 100000 nM
same,GI50,PC-3 prostate,358 nM
same,TGI,PC-3 prostate,> 100000 nM
same,GI50,RPMI-8226 leukemia,402 nM
same,TGI,RPMI-8226 leukemia,> 100000 nM
same,GI50,MOLT-4 leukemia,508 nM
same,TGI,MOLT-4 leukemia,> 100000 nM
same,GI50,OVCAR-4 ovarian,1010 nM
same,TGI,OVCAR-4 ovarian,> 100000 nM
same,GI50,SW-620 colon,547 nM
same,TGI,SW-620 colon,> 100000 nM
same,GI50,KM12 colon,572 nM
same,TGI,KM12 colon,> 100000 nM
same,GI50,CCRF-CEM leukemia,451 nM
same,TGI,CCRF-CEM leukemia,> 100000 nM
same,GI50,TK-10 renal,785 nM
same,TGI,TK-10 renal,> 100000 nM
same,GI50,K-562 leukemia,363 nM
same,TGI,K-562 leukemia,> 100000 nM
same,GI50,A549 NSCLC,378 nM
same,TGI,A549 NSCLC,> 100000 nM
same,GI50,SF-539 CNS,877 nM
same,TGI,SF-539 CNS,> 100000 nM
same,GI50,SNB-19 CNS,351 nM
same,TGI,SNB-19 CNS,> 100000 nM
same,GI50,CAKI-1 renal,561 nM
same,TGI,CAKI-1 renal,> 100000 nM
same,GI50,IGROV1 ovarian,649 nM
same,TGI,IGROV1 ovarian,> 100000 nM
same,GI50,T-47D breast,923 nM
same,TGI,T-47D breast,69000 nM
same,GI50,OVCAR-8 ovarian,310 nM
same,TGI,OVCAR-8 ovarian,> 100000 nM
same,GI50,NCI-H522 lung,381 nM
same,TGI,NCI-H522 lung,> 100000 nM
same,GI50,HOP-62 NSCLC,590 nM
same,TGI,HOP-62 NSCLC,> 100000 nM
same,GI50,COLO 205 colon,4110 nM
same,TGI,COLO 205 colon,> 84500 nM
same,GI50,SN12C renal,326 nM
same,TGI,SN12C renal,> 100000 nM
